Laboratory results as given in patent publication US4499104A, “Imidazole compound, the process for its preparation, and therapeutically active compositions containing same” (priority 1976, dated 1985).

What was measured:
[1] = tested on: Rat; conditions: in vivo
[2] = Hot plate method (thermal stimulus), analgesic activity; assay type: in vivo, Male mice
Protocol: This is based on the time (seconds) taked by the mouse for removing his paws from a plate heated to 56° C. Male mice were used of weight 25 to 27 g, preselected so that all reacted in a time less than 20 seconds.
The reaction time was measured 15, 30 and 60 minutes after administering the drugs. The chlorophenazole was tested orally and subcutaneously, both alone and associated with morphine hydrochloride. […] (FIGS. 2 and 3).

[3] = Anticonvulsive activity against strychnine; assay type: in vivo, Rockland-Ocefa mice; conditions: for Protection from convulsivant strychnine, first value: first of two values; for Protection from convulsivant strychnine, second value: second of two values
Protocol: Rockland-Ocefa mice of both sexes weighing 22±3 g and fasting for 16 hours were used. The convulsive agents were administered i.p. in doses of 2 mg/kg of strychnine sulphate and 110 mg/kg of cardiazole.

[4] = tested on: rats; assay: Chronic toxicity, first experiment (60 days); assay type: in vivo, Wistar-Ocefa rats; conditions: 60 days
Protocol: (§1) Wistar-Ocefa rats of both sexes weighing 70-90 g were used, divided into groups of 30 animals (15 males and 15 females) to a total of […].
(§2) Chlorophenazole and phenylbutazone (reference drug) were administered orally for a period of 60 days in doses of 30-60 mg/kg of chlorophenazole and 8-160 mg/kg of phenylbutazone (first experiment) and for a period of 5 months in doses of 6-12 mg/kg of chlorophenazole and 16 mg/kg of phenylbutazone (second experiment).
(§3) The following parameters were determined periodically: behavior, general state, food consumption, body weight, red blood cell number, white blood cell number, leucocite formula, hemoglobin, hematocrit, globular value, total proteins, glycemia, azotemia, cholesterol, total lipids, triglycerides, creatinine, GOT, GPT, urine analysis. At the end of the experiment the animals were sacrificed, their general state was observed, the following organs were weighed: liver, spleen, kidneys, supranenes, ovary and testicles, lungs, heart, stomach.

[5] = Edema by carrageen in normal and adrenoprival (suprarenectomised) rats; assay type: in vivo, rat; set-up: Edema by carrageen: unit not given beside the values
Protocol: A 1% physiological solution of carrageen was used. Rats of the Wistar-Roux-Ocefa stock having a weight of 150±30 g were used. The drugs were suspended in 1% carboxymethylcellulose or dissolved in distilled water and administered orally one hour before the inflammatory agent in a volume of 0.5 ml/100 g. The carrageen was adminstered subcutaneously in the subplanetary region of one of the rear paws. The volume of the paw was measured platysmagraphically initially and then after 1.5 hour, 3 hours and 5 hours after administering the carrageen. One inflammation unit was defined as the displacement of 0.01 ml of Hg.
The edema was evaluated as the difference in volume of the rear paw before and after the carrageen. The DE 50 was calculated by the probits method and graphically. The comparison drugs used were phenylbutazone and niflumic acid.
To evaluate if the activity of the chlorophenazole on edema by carrageen was influenced by stimulation of the suprarenes, experiments were carried out with suprarenectomised rats. Normal rats were also compared with falsely operated rats to evaluate the influence of the operational trauma.

[6] = Action on sleep by barbiturates; assay type: in vivo, Wistar-Ocefa rats
Protocol: […] Loss of the redressment reflex was taken to indicate commencement of sleep. The chlorophenazone was administered orally with a dose of 1/10 of the DL50. The induction time and the duration of sleep were measured.

[7] = tested on: rats; assay: Chronic toxicity, second experiment (5 months); assay type: in vivo, Wistar-Ocefa rats; conditions: for cholesterol: male rats
Protocol: as §1, §2, §3

[8] = Antipyretic activity, hyperthermia by beer yeast in rat; assay type: in vivo, Wistar stock; conditions: oral, 1/10 of DL50; chlorophenazole 50 mg/kg, phenylbutazone 35 mg/kg
Protocol: It was then measured in the rat using 10 animals of Wistar stock per group weighing 170-200 g, made hyperthermal by subcutaneous injection of a 10% beer yeast suspension in distilled water.
The compounds awere administered orally 60 minutes after the induction of fever in doses equal to 1/10 of the DL50. Readings were taken at 30 minute intervals for 5 hours.

[9] = tested on: Dog; assay: Acute toxicity, dog; assay type: in vivo
[10] = Stretching by acetic acid (chemical stimulus), analgesic activity; assay type: in vivo, mice, Rockland-Roux-Ocefa stock
Protocol: Twelve mice of both sexes, Rockland-Roux-Ocefa stock of weight 23-25 g were used per group. The drugs were administered orally 30 minutes before i.p. injection of 0.1 ml/10 g of 0.6% acetic acid.

[11] = tested on: Rat; assay: Acute toxicity, rat
[12] = tested on: human; assay: Human therapy; assay type: in vivo
[13] = tested on: Rabbit; assay: Acute toxicity, rabbit; assay type: in vivo; conditions: intravenous injection
Protocol: (b) Rabbit: by intravenous injection DL100 =55 mg/kg

[14] = in vivo; conditions: rat
[15] = chlorophenazole 51.5 mg/kg oral + pentobarbital sodium 20 mg/kg

Q: For `Cc1[nH]cnc1-c1ccc(Cl)cc1` [Chlorophenazole, 4-(p-chlorophenyl)-5-methylimidazole], which “toxicity relative to niflumic acid” value [1] is on record?
A: The value was “much less toxic than the latter”.

Q: And the “reaction time relative to control mice” value ([2]; 50 mg/kg oral)?
A: Its value is “significantly prolongs the reaction time relative to the control mice”.

Q: And the “effect on morphine analgesia” value ([2]; associated with morphine hydrochloride)?
A: The value was “evident increase exerted by the drug on morphine analgesia”.

Q: And the “Protection from convulsivant strychnine, first value” (“Protection … first value” below) ([3]; 50 mg/kg, 15')?
A: The value was 7.0.

Q: What about the “Protection from convulsivant strychnine, second value” (from here on “Protection … second value”) ([3]; 50 mg/kg, 15') of the same compound?
A: Its value is 7.4.

Q: What about the “Protection … first value” ([3]; 50 mg/kg, 30') of the same compound?
A: The value was 12.8.

Q: What about the “Protection … second value” ([3]; 50 mg/kg, 30') of the same compound?
A: The value was 12.6.

Q: And the “Protection … first value” ([3]; 50 mg/kg, 90')?
A: The value was 8.7.

Q: What about the “Protection … second value” ([3]; 50 mg/kg, 90') of the same compound?
A: The value was 13.8.

Q: What about the “Protection … first value” ([3]; 100 mg/kg, 15') of the same compound?
A: Its value is 11.7.

Q: And the “Protection … second value” ([3]; 100 mg/kg, 15')?
A: Its value is 19.5.

Q: And the “Protection … first value” ([3]; 100 mg/kg, 30')?
A: Its value is 11.3.

Q: What about the “Protection … second value” ([3]; 100 mg/kg, 30') of the same compound?
A: The value was 13.8.

Q: And the “Protection … first value” ([3]; 100 mg/kg, 90')?
A: The value was 9.5.

Q: What about the “Protection … second value” ([3]; 100 mg/kg, 90') of the same compound?
A: Its value is 11.5.

Q: What about the “Protection … first value” ([3]; 200 mg/kg, 15') of the same compound?
A: Its value is 28.6.

Q: What about the “Protection … second value” ([3]; 200 mg/kg, 15') of the same compound?
A: Its value is 18.3.

Q: And the “Protection … first value” ([3]; 200 mg/kg, 30')?
A: Its value is 12.8.

Q: And the “Protection … second value” ([3]; 200 mg/kg, 30')?
A: The value was 16.0.

Q: And the “Protection … first value” ([3]; 200 mg/kg, 90')?
A: Its value is 18.2.

Q: And the “Protection … second value” ([3]; 200 mg/kg, 90')?
A: Its value is 21.0.

Q: What about the stomach appearance [4] of the same compound?
A: Its stomach appearance is “distended and rose colored”.

Q: And the cholesterol ([4]; larger doses)?
A: Its cholesterol is “the same for cholesterol at the larger doses”.

Q: What about the “dependence of activity on the suprarenal cortex” value ([5]; adrenoprival rats) of the same compound?
A: Its value is “independent of the suprarenal cortex”.

Q: What about the Edema by carrageen ([5]; adrenoprival rats, 10 mg/kg, 1.5 hours) of the same compound?
A: The Edema by carrageen was 22.

Q: What about the Edema by carrageen ([5]; adrenoprival rats, 10 mg/kg, 3 hours) of the same compound?
A: The Edema by carrageen was 27.

Q: And the Edema by carrageen ([5]; adrenoprival rats, 10 mg/kg, 5 hours)?
A: Its Edema by carrageen is 55.

Q: What about the Edema by carrageen ([5]; adrenoprival rats, 20 mg/kg, 1.5 hours) of the same compound?
A: The Edema by carrageen was 16.

Q: And the Edema by carrageen ([5]; adrenoprival rats, 20 mg/kg, 3 hours)?
A: The Edema by carrageen was 18.

Q: What about the Edema by carrageen ([5]; adrenoprival rats, 20 mg/kg, 5 hours) of the same compound?
A: The Edema by carrageen was 45.

Q: What about the Edema by carrageen ([5]; adrenoprival rats, 40 mg/kg, 1.5 hours) of the same compound?
A: Its Edema by carrageen is 13.

Q: And the Edema by carrageen ([5]; adrenoprival rats, 40 mg/kg, 3 hours)?
A: Its Edema by carrageen is 20.

Q: What about the Edema by carrageen ([5]; adrenoprival rats, 40 mg/kg, 5 hours) of the same compound?
A: Its Edema by carrageen is 39.

Q: What about the Edema by carrageen ([5]; normal rats, 10 mg/kg, 1.5 hours) of the same compound?
A: The Edema by carrageen was 15.

Q: What about the Edema by carrageen ([5]; normal rats, 10 mg/kg, 3 hours) of the same compound?
A: Its Edema by carrageen is 35.

Q: What about the Edema by carrageen ([5]; normal rats, 10 mg/kg, 5 hours) of the same compound?
A: The Edema by carrageen was 58.

Q: And the Edema by carrageen ([5]; normal rats, 20 mg/kg, 1.5 hours)?
A: Its Edema by carrageen is 15.

Q: What about the Edema by carrageen ([5]; normal rats, 20 mg/kg, 3 hours) of the same compound?
A: The Edema by carrageen was 29.

Q: And the Edema by carrageen ([5]; normal rats, 20 mg/kg, 5 hours)?
A: Its Edema by carrageen is 44.

Q: What about the Edema by carrageen ([5]; normal rats, 40 mg/kg, 1.5 hours) of the same compound?
A: Its Edema by carrageen is 15.

Q: What about the Edema by carrageen ([5]; normal rats, 40 mg/kg, 3 hours) of the same compound?
A: Its Edema by carrageen is 23.

Q: And the Edema by carrageen ([5]; normal rats, 40 mg/kg, 5 hours)?
A: Its Edema by carrageen is 42.

Q: And the “action on sleep by barbiturates” value ([6]; 1/10 of the DL50 oral)?
A: Its value is “improves sleep by barbiturates”.

Q: What about the “Induction time” value [6, 15] of the same compound?
A: Its value is 2.9 min.

Q: What about the “Sleeping time” value [6, 15] of the same compound?
A: Its value is 65.2 min.

Q: And the cholesterol ([7]; 6 mg/kg)?
A: Its cholesterol is “significant alteration”.

Q: And the glycemia ([7]; 12 mg/kg, female rats)?
A: Its glycemia is “small increase in glycemia”.

Q: And the cholesterol ([7]; greater dose)?
A: Its cholesterol is “not confirmed with the greater dose”.

Q: And the “antipyretic activity relative to phenylbutazone” value [8]?
A: Its value is “superiority over phenylbutazone”.

Q: What about the DL100 [9] of the same compound?
A: Its DL100 is 50 mg/kg.

Q: What about the “% effect” value ([10]; 21.3 mg/kg oral) of the same compound?
A: Its value is 18%.

Q: And the “Number of stretches/20 min.” value ([10]; 21.3 mg/kg oral)?
A: Its value is 70 stretches/20 min.

Q: What about the “% effect” value ([10]; 33.0 mg/kg oral) of the same compound?
A: The value was 42%.

Q: What about the “Number of stretches/20 min.” value ([10]; 33.0 mg/kg oral) of the same compound?
A: The value was 49 stretches/20 min.

Q: And the “% effect” value ([10]; 51.0 mg/kg oral)?
A: Its value is 66%.

Q: And the “Number of stretches/20 min.” value ([10]; 51.0 mg/kg oral)?
A: The value was 29 stretches/20 min.

Q: And the analgesic activity ([10]; oral)?
A: The analgesic activity was “very good analgesic activity, decidedly better than that of the clonixine (Table 5) and mepyrazole”.

Q: What about the symptoms preceding death ([11]; rat and mouse, acute toxicity) of the same compound?
A: Its symptoms preceding death is “reduction in spontaneous motility, sedation, hypotherma, paralysis”.

Q: And the “acute toxicity values and therapeutic index relative to phenylbutazone” value ([11]; summary)?
A: The value was “well in excess of those for phenylbutazone”.

Q: And the “pharmacological results in human therapy” value [12]?
A: The value was “fully confirmed in human therapy”.

Q: What about the DL100 [13] of the same compound?
A: Its DL100 is 55 mg/kg.

Q: And the “final framework (symptoms)” value [13]?
A: Its value is “marked muscular hypotonia, an almost catatonic state and death by respiratory paralysis”.

Q: And the LD50 ([14]; ip)?
A: Its LD50 is 135 mg/kg.

Q: What about the LD50 ([14]; po) of the same compound?
A: Its LD50 is 515 mg/kg.
